The subject of series [1] is Platelet-poor plasma (PPP), activated partial thromboplastin time. As to the kind of experiment: Antithrombic assay: activated partial thromboplastin time (APTT). The conditions noted are these: rabbit PPP, compound 100 μM, mean ± SD n = 4, blank plasma 29.83 ± 3.86. In kind it is biochemical, New Zealand white rabbits. The text has this:
(§1) According to our previous studies, the antithrombotic activity could be estimated by measuring the prolongation of the plasma clotting time of thrombin time (TT), activated partial thromboplastin time (APTT), international normalized ratio (INR) increase in prothrombin time (PT), and reduction in fibrinogen (FIB) content.
(§2) Male New Zealand white rabbits weighing 2–2.5 kg were obtained from the experimental animal center of Nanjing University of Chinese Medicine and were approved by Animal Ethics Committee of Nanjing University of Chinese Medicine. They were kept in plastic cages at 22 ± 2 °C with free access to pellet food and water and on a 12 h light/dark cycle. Animal welfare and experimental procedures were carried out in accordance with the guide for the care and use of laboratory animals (National Research Council of USA, 1996) and related ethical regulations of Nanjing University of Chinese Medicine. Rabbits were anesthetized with pentobarbital (50 mg/kg) and blood was drawn from the common carotid artery. Blood was collected into plastic tubes with 3.8% sodium citrate (citrate/blood: 1:9, v/v) for plasma anticoagulation. Platelet-poor plasma (PPP) was separated from blood by centrifugation at 3000 rpm for 10 min.
(§3) TT, APTT, PT, and FIB were tested with commercial kits following the manufacturer’s instructions by a coagulometer (Model LG-PABER-I, Steellex Co., Beijing, China). All the compounds were dissolved in PBS with 20% DMSO, and the concentration was 100 μM. TT was determined by incubating 40 μL PPP solution for 3 min at 37 °C, followed by addition of 40 μL thrombin solution and 20 μL sample for 3 min at 37 °C. APTT was determined by incubating 10 μL sample solution and 50 μL PPP solution with 50 μL APTT-activating agent for 3 min at 37 °C, followed by the addition of 50 μL CaCl2. PT was determined by incubating 40 μL PPP solution for 3 min at 37 °C, followed by the addition of 40 μL thromboplastin agent and 20 μL sample. FIB was determined by incubating 10 μL PPP solution with 90 μL imidazole buffer for 3 min at 37 °C, followed by addition of 50 μL FIB agent and 10 μL sample solution. By measuring the prolongation of the plasma clotting time of thrombin time (TT), activated partial thromboplastin time (APTT), INR increase in prothrombin time (PT), and reduction in fibrinogen (FIB) content, the antithrombotic activity was assessed.

Series [2] deals with Platelet-poor plasma (PPP), fibrinogen. As to the kind of experiment: Antithrombic assay: fibrinogen (FIB) content. It counts as biochemical, New Zealand white rabbits. The settings on record: rabbit PPP, compound 100 μM, mean ± SD n = 4, blank plasma 7.23 ± 0.38.
From the text: as §1, §2, §3

The nature of series [3]: Aqueous solubility by UV spectrophotometry. In kind it is physicochemical. The procedure: Scutellarin (1) and scutellarein (2) (300 μg) were dissolved in 25 mL CH3OH, and 3 (300 μg) was dissolved in 25 mL water. […] Each tested compound (250 μg) was ultrasound dissolved in 10 mL pure water for 1 h at 25 °C, and the solutions were stood for 30 min before centrifuging at the speed of 30,000 r/min. Absorbances of each compound were obtained by UV scanning, and the aqueous solubility of all three compounds were obtained through analysis of the standard curve.

Series [4] has as its system Platelet-poor plasma (PPP), prothrombin time. As to the kind of experiment: Antithrombic assay: prothrombin time (PT). It counts as biochemical, New Zealand white rabbits. The conditions noted are these: rabbit PPP, compound 100 μM, mean ± SD n = 4, blank plasma 5.03 ± 0.24.
From the text: as §1, §2, §3

The nature of series [5]: DPPH-radical scavenging ability assay. The conditions noted are these: DPPH 80 μmol/L in DMSO, 30 min in the dark. In kind it is biochemical. How it is done:
Antioxidants play important roles in removing free radicals, as antioxidants provide hydrogen to free radicals and prohibit the adverse reactions from destroying normal tissues. This assay was measured according to previous studies.
The following method was adopted to evaluate the 1,1-diphenyl-2-picrylhydrazyl (DPPH) scavenging property of the products: scutellarin (1), scutellarein (2), and 3 were dissolved in DMSO to result in final concentrations ranging from 16 to 250 μmol/L, and then DPPH (80 μmol/L, 100 μL) dissolved in DMSO was added in the testing samples. After incubating for 30 min in the dark, the scavenging effect was calculated according to the following equation:Scavenging effect (%) = [(1 − (A1 − A2)/A0] × 100%(1) where A0 is the absorbance of the control (without extract), A1 is the absorbance in the presence of the extract, and A2 is the absorbance without DPPH.

Series [6] has as its system Platelet-poor plasma (PPP), thrombin time. As to the kind of experiment: Antithrombic assay: thrombin time (TT). In kind it is biochemical, New Zealand white rabbits. The conditions noted are these: rabbit PPP, compound 100 μM, mean ± SD n = 4, blank plasma 19.85 ± 1.59.
From the text: as §1, §2, §3

On the set-up of series [7]: method as in PMID 16997537. The conditions noted are these: cited from earlier work.

Values after ≈ are worked out from the molar mass of the structure shown. Values joined by “and” are separate entries in the source; they are usually repeats but may differ in a detail not shown here. Equal entries are not always repeated.

The Solubility is how much of the substance goes into solution per volume. For orientation: IC50 means the concentration that inhibits the measured activity by half. Consider `O=c1cc(-c2ccc(O)cc2)oc2cc(O)c(O)c(O)c12` [Scutellarein (2), 5,6,7-Trihydroxy-2-(4-hydroxyphenyl)-4H-chromen-4-one], for which the APTT in series [1] is listed as 36.12 ± 2.20 s; in series [1] (listed as scutellarein (2)), 36.12 s. In addition, the FIB was 6.91 ± 0.12 g/L in series [2] and 6.91 g/L in series [2] (listed as scutellarein (2)). This compound had a Solubility in series [3] (1 h) of 6.85 µg/mL (≈ 23.9 µM). In addition, the PT was 5.93 ± 0.81 s in series [4] and 5.93 s in series [4] (listed as scutellarein (2)). Inhibition in series [5] was half-maximal at 16.1 µM (IC50). The TT in series [6] is 24.48 ± 1.18 s; in series [6] (listed as scutellarein (2)), 24.48 s.

For orientation: aqueous solubility means how much of the substance goes into solution per volume. As for `O=C(O)[C@H]1O[C@@H](Oc2cc3oc(-c4ccc(O)cc4)cc(=O)c3c(O)c2O)[C@H](O)[C@@H](O)[C@@H]1O` [Scutellarin (1), 4′,5,6-trihydroxyflavone-7-glucuronide], the APTT in series [1] is recorded as 33.78 ± 2.32 s; in series [1] (listed as scutellarin (1)) it was 33.78 s. For the same compound, the FIB was 6.41 ± 0.15 g/L in series [2] and 6.41 g/L in series [2] (listed as scutellarin (1)). The same compound came in with a Solubility in series [3] (in pure water, 25 °C, UV spectrophotometry) of 7.62 µg/mL (≈ 16.5 µM). Also, in series [7], the aqueous solubility was 14.4 ± 0.17 µg/mL (≈ 31.1 µM). Also, the PT in series [4] worked out at 6.25 ± 0.08 s; in series [4] (listed as scutellarin (1)), 6.25 s. Besides, in series [5], the IC50 is 17.9 µM. For the same compound, the TT in series [6] was found to be 23.25 ± 1.55 s; in series [6] (listed as scutellarin (1)), 23.25 s.

Usually solubility stands for the concentration that dissolves in the medium under given conditions. Take `O=c1cc(-c2ccc(O)cc2)oc2c(S(=O)(=O)O)c(O)c(O)c(O)c12` [compound 3, 5,6,7-Trihydroxy-2-(4-hydroxyphenyl)-4-oxo-4H-chromene-8-sulfonic acid]: the APTT in series [1] is 30.33 s and 30.33 ± 1.06 s. Further, the FIB in series [2] is 7.01 g/L and 7.01 ± 0.96 g/L. This compound also registered a solubility at 1 h in series [3] (25 °C, water, thermodynamic from solid) of 1950 µg/mL (≈ 5320 µM). For the same compound, the PT in series [4] is 6.33 s and 6.33 ± 1.87 s. Half-maximal inhibition in series [5] (IC50) required 16.8 µM. The TT in series [6] is 23.71 s and 23.71 ± 1.82 s.

Values taken from PMC6152701, “Synthesis and Bioactivity Characterization of Scutellarein Sulfonated Derivative” (Molecules : A Journal of Synthetic Chemistry and Natural …, 2017).
